Laboratory results as given in the supplement of paper PMC4862054.

Experiments:
Conditions in all cases: incubation time: 72 h
[1] = test system: BT-474; test: normalised response (% of control), CellTox Green; higher = less cell death (100 = DMSO, 0 = benzethonium chloride kill control)
Method in brief: (§1)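 Breast cancer cell lines in 20 µl suspension were added to 384-well plates containing compound at 5 concentrations, spaced in 10-fold steps across a 10,000-fold range chosen for each compound, and incubated for 72 h. CellTox Green fluorescence was read at 485/520 nm, followed by CellTiter-Glo luminescence after 10 min at room temperature. Signals on each plate were normalised so that 0.1 % DMSO equals 100 and a positive kill control equals 0. Every value in the table is the normalised signal at one concentration of the series.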

[2] = test system: BT-549; test: as above
Method in brief: as §1

[3] = test system: CAL-120; test: as above
Method in brief: as §1

[4] = test system: CAL-148; test: as above
Method in brief: as §1

[5] = test system: CAL-51; test: as above
Method in brief: as §1

[6] = test system: CAL-85-1; test: as above
Method in brief: as §1

[7] = test system: DU-4475; test: as above
Method in brief: as §1

[8] = test system: HCC1143; test: as above
Method in brief: as §1

[9] = test system: HCC1599; test: as above
Method in brief: as §1

[10] = test system: HCC1937; test: as above
Method in brief: as §1

[11] = test system: HDQ-P1; test: as above
Method in brief: as §1

[12] = test system: Hs578T; test: as above
Method in brief: as §1

[13] = test system: MDA-MB-231; test: as above
Method in brief: as §1

[14] = test system: MDA-MB-436; test: as above
Method in brief: as §1

[15] = test system: MDA-MB-453; test: as above
Method in brief: as §1

[16] = test system: MFM-223; test: as above
Method in brief: as §1

[17] = test system: BT-474; test: normalised response (% of control), CellTiter-Glo; higher = more viable cells (100 = DMSO, 0 = benzethonium chloride kill control)
Method: (§2)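 DSRT, 72 h incubation, CellTox Green / CellTiter-Glo readout. Signal is normalised to DMSO and benzethonium chloride controls. Value is the normalised response at dose 3.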

[18] = test system: BT-549; test: as above
Method: as §2

[19] = test system: CAL-120; test: as above
Method: as §2

[20] = test system: CAL-148; test: as above
Method: as §2

[21] = test system: CAL-51; test: as above
Method: as §2

[22] = test system: CAL-85-1; test: as above
Method: as §2

[23] = test system: DU-4475; test: as above
Method: as §2

[24] = test system: HCC1143; test: as above
Method: as §2

[25] = test system: HCC1599; test: as above
Method: as §2

[26] = test system: HCC1937; test: as above
Method: as §2

[27] = test system: HDQ-P1; test: as above
Method: as §2

[28] = test system: Hs578T; test: as above
Method: as §2

[29] = test system: MCF-10A; test: as above
Method: as §2

[30] = test system: MDA-MB-231; test: as above
Method: as §2

[31] = test system: MDA-MB-436; test: as above
Method: as §2

[32] = test system: MDA-MB-453; test: as above
Method: as §2

[33] = test system: MDA-MB-468; test: as above
Method: as §2

[34] = test system: MFM-223; test: as above
Method: as §2

[35] = test system: SK-BR-3; test: as above
Method: as §2

[36] = test system: MCF-10A; test: normalised response (% of control), CellTox Green; higher = less cell death (100 = DMSO, 0 = benzethonium chloride kill control)
Method in brief: as §1

[37] = test system: MDA-MB-468; test: as above
Method in brief: as §1

Row | SMILES | normalised response [1] [%] | normalised response [2] [%] | normalised response [3] [%] | normalised response [4] [%] | normalised response [5] [%] | normalised response [6] [%] | normalised response [7] [%] | normalised response [8] [%] | normalised response [9] [%] | normalised response [10] [%] | normalised response [11] [%] | normalised response [12] [%] | normalised response [13] [%] | normalised response [14] [%] | normalised response [15] [%] | normalised response [16] [%] | normalised response [17] [%] | normalised response [18] [%] | normalised response [19] [%] | normalised response [20] [%] | normalised response [21] [%] | normalised response [22] [%] | normalised response [23] [%] | normalised response [24] [%] | normalised response [25] [%] | normalised response [26] [%] | normalised response [27] [%] | normalised response [28] [%] | normalised response [29] [%] | normalised response [30] [%] | normalised response [31] [%] | normalised response [32] [%] | normalised response [33] [%] | normalised response [34] [%] | normalised response [35] [%] | normalised response [36] [%] | normalised response [37] [%]
1 | COc1cc(OC2CCN(C)CC2)ccc1Nc1ncc2c(n1)n(C1CCCC1)c(=O)n2C [AZ 3146] (100 nM) | 98.3 | 111 | 96.9 | 89.9 | 111 | 107 | 99.8 | 96.7 | 96.6 | 96.3 | 96.2 | 99.1 | 92.5 | 77.7 | 104 | 100 | 104 | 108 | 99.9 | 99.2 | 115 | 102 | 99.9 | 98.8 | 98.3 | 96.2 | 98.7 | 94.1 | 96.7 | 99.1 | 104 | 111 | 101 | 99.2 | 98.1 | – | –
2 | CNC(=O)c1cccc(-c2ccc3c(N4CCOC[C@@H]4C)nc(N4CCOC[C@@H]4C)nc3n2)c1 [AZD2014] (100 nM) | 102 | 101 | 101 | 83.9 | 49.6 | 104 | 103 | 105 | 93 | – | 106 | 107 | 121 | 118 | 98.7 | 103 | 87.1 | 73.9 | 79.4 | 85.6 | 69.4 | 87.6 | 97.1 | 92.3 | 119 | 80.8 | 70.5 | 93.6 | 97.3 | 86.9 | 82 | 80.8 | 94.7 | 75.1 | 64.7 | 51.3 | –
3 | COC(=O)c1ccc2c(c1)NC(=O)/C2=C(\Nc1ccc(N(C)C(=O)CN2CCN(C)CC2)cc1)c1ccccc1 [Nintedanib] (100 nM) | 102 | 101 | 100 | 102 | 109 | 98.1 | 103 | 106 | 95.1 | 108 | 83.3 | – | 92.7 | 93 | 101 | 98.9 | 96.8 | 108 | 98.7 | 106 | 103 | 98.7 | 100 | 101 | 114 | 94.9 | 95 | 103 | 93.4 | 105 | 102 | 109 | 92.2 | 95.8 | 98.3 | 102 | 82.3
4 | O=C(Nc1ccncc1)C(=O)c1cn(Cc2ccc(Cl)cc2)c2ccccc12 [Indibulin] (100 nM) | 101 | 94.8 | 93.1 | 105 | 100 | 81.3 | 105 | 120 | 111 | 98.3 | 111 | – | 105 | 90.3 | 100 | 105 | 98.1 | 81.8 | 97.5 | 113 | 62 | 87.7 | 106 | 98.5 | 89.1 | 91.5 | 96.8 | 100 | 108 | 106 | 92 | 89.1 | 95.8 | 98.5 | 96.2 | 94.4 | 136
5 | S=P(N1CC1)(N1CC1)N1CC1 [Thio-TEPA] (500 nM) | 94.3 | 108 | 97 | 102 | 113 | 107 | 101 | 101 | 97.2 | – | 92.6 | 88.8 | 105 | 85.2 | 102 | 100 | 95 | 102 | 96.1 | 95.6 | 108 | 103 | 104 | 97.5 | 89 | 95.4 | 102 | 101 | 106 | 98.8 | 94.8 | 116 | 101 | 98.7 | 110 | – | 69
6 | Cc1ccc(NC(=O)c2ccc(CN3CCN(C)CC3)cc2)cc1Nc1nc(-c2cccnc2)cs1 [Masitinib] (100 nM) | 95.3 | 91 | 98.9 | 95.1 | 104 | 99.3 | 99.3 | 105 | 101 | – | 87.1 | 106 | 91.5 | 73.4 | 103 | 91.6 | 101 | 107 | 97.7 | 106 | 83.5 | 101 | 105 | 102 | 93.8 | 103 | 109 | 102 | 91.6 | 111 | 107 | 106 | 99.8 | 106 | 99 | 68.2 | 116
7 | Oc1ccc2c(c1)CC[C@H](c1ccccc1)[C@@H]2c1ccc(OCCN2CCCC2)cc1 [Lasofoxifene] (10 nM) | 102 | 108 | 104 | 90.8 | 110 | 99.8 | 104 | 117 | 114 | 77 | 90.8 | – | 114 | 116 | 110 | 102 | 102 | 115 | 114 | 111 | 91.3 | 103 | 107 | 104 | 106 | 95.5 | 95.3 | 103 | 108 | 110 | 109 | 99.1 | 90.8 | 105 | 112 | 107 | –
8 | CN(C)CCOc1ccc(/C(=C(/CCCl)c2ccccc2)c2ccccc2)cc1 [Toremifene] (100 nM) | 101 | 92.8 | 102 | 84.1 | 110 | 98.3 | 102 | 70.6 | 99.1 | – | 74.3 | 99.7 | 55.6 | – | 106 | 92.6 | 102 | 101 | 105 | 109 | 100 | 94.6 | 104 | 103 | 102 | 99.7 | 98.2 | 104 | 103 | 105 | 100 | 107 | 99.1 | 103 | 102 | 71.6 | 127
9 | CN(C)c1nc(N(C)C)nc(N(C)C)n1 [Altretamine] (100 nM) | 102 | 89.1 | 106 | 106 | 109 | 103 | 104 | 113 | 104 | 110 | 64.1 | – | 118 | 102 | 100 | 98.5 | 98.4 | 95.4 | 103 | 106 | 107 | 102 | 104 | 97.9 | 99.9 | 99.2 | 98.2 | 106 | 105 | 99.5 | 99.1 | 105 | 99 | 106 | 112 | 101 | 123
